Data on eight compounds can be found in PMC9504985, “Identification of Novel Aryl Carboxamide Derivatives as Death-Associated Protein Kinase 1 (DAPK1) Inhibitors with Anti-Proliferative Activities: Design, Synthesis, In Vitro, and In Silico Biological Studies” (Pharmaceuticals, 2022).

As a reminder, the inhibition is the relative decrease from the control value, in per cent. For orientation: IC50 means the midpoint of a concentration-inhibition curve. Higher therefore signals weaker potency.

The target of assay [1] is T1, Death-associated protein kinase 1 (DAPK1) (Homo sapiens, UniProt P53355). Description: single-dose kinase assay, % inhibition at […]. The class given is biochemical. Conditions: read-out: % Inhibition against DAPK1 ^a.
T1 sequence (P53355 whole entry): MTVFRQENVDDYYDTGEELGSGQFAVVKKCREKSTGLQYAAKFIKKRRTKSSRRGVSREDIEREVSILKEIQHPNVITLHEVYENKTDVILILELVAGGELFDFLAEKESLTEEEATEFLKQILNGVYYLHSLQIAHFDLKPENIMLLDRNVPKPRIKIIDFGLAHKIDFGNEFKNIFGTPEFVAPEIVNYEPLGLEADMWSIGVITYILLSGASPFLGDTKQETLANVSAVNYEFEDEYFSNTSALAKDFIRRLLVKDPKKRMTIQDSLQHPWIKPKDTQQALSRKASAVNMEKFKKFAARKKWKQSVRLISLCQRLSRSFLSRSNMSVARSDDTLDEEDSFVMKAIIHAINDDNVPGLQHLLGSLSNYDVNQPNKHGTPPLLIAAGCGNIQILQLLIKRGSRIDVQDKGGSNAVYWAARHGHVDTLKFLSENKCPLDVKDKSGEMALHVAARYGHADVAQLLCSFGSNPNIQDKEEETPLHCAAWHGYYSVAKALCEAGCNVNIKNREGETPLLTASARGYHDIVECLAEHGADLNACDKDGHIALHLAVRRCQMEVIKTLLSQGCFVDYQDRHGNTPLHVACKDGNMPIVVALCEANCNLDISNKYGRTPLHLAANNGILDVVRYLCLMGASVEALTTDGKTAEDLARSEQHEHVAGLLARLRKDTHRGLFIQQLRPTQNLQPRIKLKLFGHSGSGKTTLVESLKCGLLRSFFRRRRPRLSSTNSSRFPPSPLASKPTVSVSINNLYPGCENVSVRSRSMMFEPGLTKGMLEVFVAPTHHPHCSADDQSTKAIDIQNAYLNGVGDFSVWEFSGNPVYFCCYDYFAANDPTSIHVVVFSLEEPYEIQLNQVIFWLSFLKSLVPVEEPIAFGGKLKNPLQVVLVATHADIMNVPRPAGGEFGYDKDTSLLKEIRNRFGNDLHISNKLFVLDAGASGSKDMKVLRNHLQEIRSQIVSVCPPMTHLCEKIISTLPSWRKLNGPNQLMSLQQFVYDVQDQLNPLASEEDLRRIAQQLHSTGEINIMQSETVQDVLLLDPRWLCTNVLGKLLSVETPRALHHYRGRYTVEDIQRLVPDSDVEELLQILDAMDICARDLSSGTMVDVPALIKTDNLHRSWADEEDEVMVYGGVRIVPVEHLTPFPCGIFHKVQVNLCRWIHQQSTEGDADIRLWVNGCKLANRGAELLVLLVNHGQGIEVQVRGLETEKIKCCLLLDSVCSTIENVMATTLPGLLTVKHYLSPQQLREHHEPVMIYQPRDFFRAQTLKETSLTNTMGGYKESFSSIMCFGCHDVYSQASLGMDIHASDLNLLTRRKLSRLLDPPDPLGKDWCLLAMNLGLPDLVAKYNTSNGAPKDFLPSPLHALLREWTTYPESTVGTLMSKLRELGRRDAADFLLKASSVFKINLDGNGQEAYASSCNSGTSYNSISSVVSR
Assay [2] addresses T1, Death-associated protein kinase 1 (DAPK1). Put plainly: 10-dose kinase assay (Reaction Biology HotSpot). The class given is biochemical.

Consider `O=C(Nc1ccc(Oc2cccc(Cl)c2)c(Cl)c1)c1ccnnc1` [4r, N-(3-chloro-4-(3-chlorophenoxy)phenyl) pyridazine-4-carboxamide], for which the inhibition at 10 µM in assay [1] stood at 60%.

The compound `O=C(Nc1ccc(Oc2ccc(F)cc2)c(Cl)c1)c1ccncc1` [4k, N-(3-chloro-4-(4-fluorophenoxy)phenyl) isonicotinamide] came in with an IC50 in assay [2] of 7.26 µM. For the compound `O=C(Nc1ccc(Oc2cccc(Cl)c2)c(Cl)c1)c1cccnn1` [4n, N-(3-chloro-4-(3-chlorophenoxy)phenyl) pyridazine-3-carboxamide], in assay [1], the inhibition at 10 µM is 61.5%. Regarding `O=C(Nc1ccc(Oc2cccc(Cl)c2)c(Cl)c1)c1ccccn1` [4m, N-(3-chloro-4-(3-chlorophenoxy)phenyl) picolinamide], the inhibition at 10 µM in assay [1] was 61.7%. Compound `O=C(Nc1ccc(Oc2ccc(F)cc2)c(Cl)c1)c1ccccn1` [4h, N-(3-chloro-4-(4-fluorophenoxy)phenyl) picolinamide] displayed an IC50 in assay [2] of 6.81 µM. For the compound `O=C(Nc1ccc(Oc2ccc(F)cc2)c(Cl)c1)c1cccnc1` [4j, N-(3-chloro-4-(4-fluorophenoxy)phenyl) nicotinamide], in assay [2], it took 1.7 µM to reach half-maximal inhibition (IC50). Take `O=C(Nc1ccc(Oc2cccc(Cl)c2)c(Cl)c1)c1cccnc1` [4p, N-(3-chloro-4-(3-chlorophenoxy)phenyl) nicotinamide]: in assay [1], the inhibition at 10 µM came out at 61.5%. As to `O=C(Nc1ccc(Oc2cccc(Cl)c2)c(Cl)c1)c1ccncc1` [4q, N-(3-chloro-4-(3-chlorophenoxy)phenyl) isonicotinamide], in assay [2], the IC50 was 1.09 µM.
